According to patent publication US6888015B2, “Sphingolipid synthesis inhibitor” (Japan Science and Technology Agency, priority 2001, dated 2005):

What was measured:
[1] = biological target: T1, GlcCer synthase (Cricetulus griseus, UniProt A0A9J7CH29); experiment: GlcCer synthase enzyme assay, CHO membrane fraction; type: biochemical, Chinese hamster; settings: 20 μM; substrate C6-NBD-Cer
T1 construct: Membrane fraction prepared from CHO cells is used as an enzyme source; endogenous in cells; host or cells: CHO cells, membrane fraction
T1 sequence (A0A9J7CH29 1-394): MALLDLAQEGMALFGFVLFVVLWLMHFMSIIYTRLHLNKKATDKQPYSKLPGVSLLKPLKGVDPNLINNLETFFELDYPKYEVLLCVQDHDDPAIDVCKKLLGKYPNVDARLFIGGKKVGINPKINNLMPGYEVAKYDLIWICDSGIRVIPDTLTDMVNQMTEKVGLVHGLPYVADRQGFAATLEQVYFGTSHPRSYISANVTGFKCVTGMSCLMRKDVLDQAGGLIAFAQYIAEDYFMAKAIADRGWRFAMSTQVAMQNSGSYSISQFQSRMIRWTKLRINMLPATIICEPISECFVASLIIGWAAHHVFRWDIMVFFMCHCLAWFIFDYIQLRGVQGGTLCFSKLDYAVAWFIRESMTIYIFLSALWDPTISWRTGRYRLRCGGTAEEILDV
Description: Membrane fraction prepared from CHO cells is used as an enzyme source.
Enzyme assays of SM synthesis and GlcCer synthase are carried out by using C6-NBD-Cer as a substrate as disclosed in Document 6.

[2] = tested on: CHO cells; experiment: Contents of sphingolipids and phospholipids in cells; type: cell-based, Chinese hamster; settings: 2.5 μM, 2 days
Description: CHO cells are seeded at density of 10×10^6 cells in 20 mL of F12 medium containing 10% NBS by per 150-mm dish, and incubated at 33° C. overnight. Then, after washed twice with 10 mL of serum-free F 12 medium, the cells are incubated in 20 mL of Nutridoma medium supplemented with or without 2.5 μM HPA-12 for 2 days. Each medium is replaced every 24 hours. After washed with PBS, the cells are harvested by scraping, and re-suspended in PBS. Then, lipids are extracted from the cells.
For analysis of phospholipids, extracted lipids are separated by TLC with a solvent of chloroform/methanol/acetic acid/H2O (volume ratio, 25:15:4:2).
Phosphorous contents in phospholipids are measured by the method disclosed in Document 4.
Contents of GlcCer and N-acetyl neuraminil lactosylseramide (GM3) are determined by densitometric analysis of lipids stained with Coomassie Brilliant Blue disclosed in Document 5.
Cer contents are determined by using a sn-1,2-diacylglycerol assay reagent kit (Amersham Pharmcia Biotech).

[3] = tested on: biosynthesis of phosphatidylcholine; experiment: Metabolic labeling of lipids with [14C]choline; type: cell-based, Chinese hamster; settings: 1 μM, 33° C., 4 hours
Description: CHO cells are seeded at the density of 1.0×10^6 cell in 5 mL of F12 medium containing 10% NBS, by per 60-mm dish, and cultured at 33° C. overnight. Then, the medium is changed to 1.5 mL of Nutridoma medium if necessary, various drugs are added and incubated at 4° C. for 15 minutes. Then, after addition of [^14C] serine (0.75 μCi) or [^14 C] choline (1.0 μCi) to the medium, cells were incubated at 33° C. for various periods of time.
Cells are washed twice with 2 mL of cold phosphate-buffered saline (PBS), and lysed with 900 μL of 0.1% sodium dodecyl sulfate (SDS). Then, 800 μL and 20 μL of lysate are used for lipid extraction and determination of protein concentration, respectively.
For the analysis of the lipid labeled by [^14C] choline, the lipid is separated by one-dimensional TLC using chloroform/methanol/acetic acid/H2O (25:15:4:2, volume ratio) as a developing solvent. […]
Radioactive lipid separated on the TLC plates are detected with image analyzer depicted above. After the collection of gels from TLC plates by scraping, the radioactivity of each lipid is determined by liquid scintillation counting and normalized to the protein concentration of cells.

[4] = tested on: conversion of Cer to SM in intact cells; experiment: Conversion of [3H]Cer to [3H]SM in intact cells ([3H]sphingosine pulse-chase); type: cell-based, Chinese hamster; settings: 1 μM; chase at 33° C. up to 1 hour with fumonisin B1
Description: The measurement of conversion of [^3H] Cer to [^3H] SM in cells is performed by a modified method of the method disclosed in Document 1. That is, as the first step, cells are pulse-labeled in 1.5 mL of Nutridoma medium containing 1 μM D-erythro-[^3H] sphingosine (2.5 μCi). After washed, the cells are incubated in 1.5 mL of Nutridoma medium supplemented with or without 1 μM HPA-12 at 4° C. for 15 minutes, then incubated under the presence of 100 μM fumonisin B, at 33° C. for various periods of time for chase.
The lipids are extracted from the chased cells, and separated by TLC with a developing solvent consisting of chloroform/methanol/H2O (volume ratio, 65:25:4). Then, the radioactivity of each lipid is measured by the method mentioned above.
To examine the inhibitory effect of HPA-12 on the step of Cer-to-SM conversion specifically, metabolic labeling experiments with [^3H] sphingosine are carried out. When cells are labelled with [^3H] sphingosine at 15° C., [^3H] sphingosine is effectively N-acylated and converted to [^3H] Cer, but, [^3H] Cer is not converted to [^3H] SM at this temperature (Document 2). After the labeling with [^3H] sphingosine at low temperature to generate [^3H] Cer, the cells are treated with 1 μM HPA-12 at 4° C. for 15 minutes, and then incubated at 33° C. up to 1 hour for chase. During the chase, de novo synthesis of [^3H] […]

[5] = tested on: CHO cells; experiment: Viability of cells (MTT); type: cell-based, Chinese hamster; settings: 10 μM; data not shown
Description: CHO cells are seeded at a density of 2.0×10^4 per one hole of a 48-hole culture plate in 500 μL of F12 medium containing 10% NBS, and cultivated at 33[…] overnight. Then, the medium is changed to 500 μL of Nutridoma medium containing various concentrations of HPA compounds at 33° C. for 24 hours, and the viability of cells are determined using MTT as disclosed in Document 9.

[6] = tested on: SM synthase; experiment: SM synthase enzyme assay, CHO membrane fraction; type: biochemical, Chinese hamster

CCCCCCCCCCCC(=O)NC(CO)CC(O)c1ccccc1 (stereo not shown) [HPA-12, N-(3-hydroxy-1-hydroxymethyl-3-phenylprol)dodecaneamide]
C6-NBD-GlcCer formed (GlcCer synthase activity) [1]: 325.9 ± 17.1 pmol/mg protein/10 minutes | inhibition of GlcCer synthase [1]: Neither of SM synthase nor GlcCer synthase is inhibited | content of GM3 [2]: 120 % of the drug-untreated contro | content of GlcCer [2]: 150 % of the drug-untreated contro | content of SM, lower than the drug-free control level by [2]: 30% | content of ceramide vs untreated [2]: no significant difference | Cer content ([2]; CHO cells): 0.40 ± 0.13 nmol/mg protein | GM3 content ([2]; CHO cells): 8.5 ± 0.8 nmol/mg protein | GlcCer content ([2]; CHO cells): 1.4 ± 0.1 nmol/mg protein | PC content (composition of phospholipids) ([2]; CHO cells): 47.5 ± 0.2 % of total lipids recovered | PE content (composition of phospholipids) ([2]; CHO cells): 30.6 ± 0.3 % of total lipids recovered | PI/PS content (composition of phospholipids) ([2]; CHO cells): 13.4 ± 0.3 % of total lipids recovered | SM content (composition of phospholipids) ([2]; CHO cells): 8.4 ± 0.1 % of total lipids recovered | content of total phospholipids ([2]; drug-treated cells): 315±2 nmol/mg protein | level of [14C]PC vs untreated cells [3]: almost equal | level of [14C]SM vs drug-untreated control level [3]: about half | formation of [3H]GlcCer [4]: does not inhibit and rather increases | inhibition of formation of [3H]SM [4]: 50% | toxicity to CHO cells [5]: highly toxic | C6-NBD-SM formed (SM synthase activity) ([6]; 20 μM, substrate C6-NBD-Cer): 168.1 ± 1.7 pmol/mg protein/10 minutes | inhibition of SM synthase ([6]; 20 μM, substrate C6-NBD-Cer): Neither of SM synthase nor GlcCer synthase is inhibited | inhibition of SM synthase activity ([6]; substrate C5-DMB-Cer, data not shown): not observed
